The record followed here is publication PMC11239673, “Structural basis for the bi-specificity of USP25 and USP28 inhibitors” (EMBO Reports, 2024).

Type in all cases: biochemical
The target in one experiment is T1, USP28Δtip E366A (Homo sapiens, UniProt Q96RU2, E366A/INS458SGSG).
T1 sequence (Q96RU2 with tags, fused parts or gaps E366A/INS458SGSG): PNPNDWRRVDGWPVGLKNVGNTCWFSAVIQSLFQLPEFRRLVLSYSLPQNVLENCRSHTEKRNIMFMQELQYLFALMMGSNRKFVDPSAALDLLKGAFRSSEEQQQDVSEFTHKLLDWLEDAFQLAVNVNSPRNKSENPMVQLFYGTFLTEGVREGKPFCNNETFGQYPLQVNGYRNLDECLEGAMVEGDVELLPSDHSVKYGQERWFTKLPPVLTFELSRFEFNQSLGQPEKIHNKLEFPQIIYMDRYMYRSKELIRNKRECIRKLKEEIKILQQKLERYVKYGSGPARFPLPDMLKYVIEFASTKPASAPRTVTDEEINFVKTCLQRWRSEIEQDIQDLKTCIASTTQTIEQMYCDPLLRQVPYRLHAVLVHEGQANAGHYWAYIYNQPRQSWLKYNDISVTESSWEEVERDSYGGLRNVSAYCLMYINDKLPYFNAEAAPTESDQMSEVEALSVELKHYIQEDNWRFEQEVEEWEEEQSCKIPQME
Nature of the experiment: Ub-Rho110 dose–response assay, USP28Δtip E366A. The note with it: for IC50: USP28 - E366A.

The target of the next experiment is T2, USP25Δtip E373Q (Homo sapiens, UniProt Q9UHP3, DEL465-537/E373Q/INS464GSGSGS).
T2 construct: 6xHis or thioredoxin-6xHis (N, cleaved yes); made in house; host or cells: E. coli BL21star (DE3)
T2 sequence (Q9UHP3 with tags, fused parts or gaps E373Q/DEL465-477/P478G/DEL482-535/A536G/P537S limits assumed): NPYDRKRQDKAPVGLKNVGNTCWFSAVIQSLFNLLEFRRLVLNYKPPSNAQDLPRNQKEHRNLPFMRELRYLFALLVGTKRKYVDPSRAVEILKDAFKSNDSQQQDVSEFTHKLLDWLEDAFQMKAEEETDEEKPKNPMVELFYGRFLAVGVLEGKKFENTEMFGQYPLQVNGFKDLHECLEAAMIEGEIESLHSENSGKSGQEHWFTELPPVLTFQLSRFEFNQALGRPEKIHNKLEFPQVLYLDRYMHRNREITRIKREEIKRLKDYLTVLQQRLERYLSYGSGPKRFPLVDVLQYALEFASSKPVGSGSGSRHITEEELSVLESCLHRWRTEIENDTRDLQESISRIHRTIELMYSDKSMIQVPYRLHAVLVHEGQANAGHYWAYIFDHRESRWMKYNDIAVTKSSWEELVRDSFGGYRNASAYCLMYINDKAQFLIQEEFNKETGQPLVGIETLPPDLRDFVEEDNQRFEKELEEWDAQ
Nature of the experiment: Ub-Rho110 dose–response assay, USP25Δtip E373Q.

The target of the next experiment is T3, USP25Δtip E373A (Homo sapiens, UniProt Q9UHP3, DEL465-537/E373A/INS464GSGSGS).
T3 construct: 6xHis or thioredoxin-6xHis (N, cleaved yes); made in house; host or cells: E. coli BL21star (DE3)
T3 sequence (Q9UHP3 with tags, fused parts or gaps E373A/DEL465-477/P478G/DEL482-535/A536G/P537S limits assumed): T2 sequence (Q9UHP3 with tags, fused parts or gaps E373Q/DEL465-477/P478G/DEL482-535/A536G/P537S limits assumed) with Q217A
Kind of experiment: Ub-Rho110 dose–response assay, USP25Δtip E373A.

For the next experiment, the target named is T4, USP25Δtip L271F (Homo sapiens, UniProt Q9UHP3, DEL465-537/INS464GSGSGS/L271F).
T4 construct: 6xHis or thioredoxin-6xHis (N, cleaved yes); made in house; host or cells: E. coli BL21star (DE3)
T4 sequence (Q9UHP3 with tags, fused parts or gaps L271F/DEL465-477/P478G/DEL482-535/A536G/P537S limits assumed): T2 sequence (Q9UHP3 with tags, fused parts or gaps E373Q/DEL465-477/P478G/DEL482-535/A536G/P537S limits assumed) with L115F, Q217E
Nature of the experiment: Ub-Rho110 dose–response assay, USP25Δtip L271F.

As a reminder, the IC50 is the midpoint of a concentration-inhibition curve. In general, inhibition refers to the relative decrease from the control value, in per cent.

Numbering of substitutions follows the chain as printed. Several values for one entry are separate records, joined by “and”; a condition that tells them apart may be missing. Identical values can stand only once. Like-named read-outs stand apart in the source and are kept apart here.

`Cc1ccc2c(N)c(C(=O)NC3CCc4cc(N5CC6CCC(C5)N6)ccc4C3)sc2n1` (centres unmarked) [FT206]: the “t-test vs. USP28 WT control - E366A” value at USP28Δtip E366A was 4.894E-04. The IC50 is 17.3 µM at USP28Δtip E366A (mean of replicates, read-out: IC50, mean and SD); 14.5 µM and 15.5 µM and 12.1 µM and 14.2 µM and 25.7 µM and 21.9 µM on USP28Δtip E366A (single replicates, read-out: IC50 of each replicate curve (unlabelled line above mean and SD)). The inhibition at 100 µM at USP28Δtip E366A (read-out: relative inhibition [%] - USP28 - E366A) stood at 64.6%; at USP25Δtip E373Q (read-out: relative inhibition [%] - USP25 - E373Q, inhibitor 100.00 µM, single replicates), 48.3%; on USP25Δtip E373A (read-out: relative inhibition [%] - USP25 - E373A, inhibitor 100.00 µM, single replicates), 59.9%; on USP25Δtip L271F (read-out: relative inhibition [%] - USP25 - L271F, inhibitor 100.00 µM, single replicates), 100%. In addition, the “t-test vs. USP25 WT control - E373Q” value on USP25Δtip E373Q (p value, inhibitor IC50 on USP25 E373Q compared with USP25 WT) was 8.243E-06. Further, the “t-test vs. USP25 WT control - E373A” value on USP25Δtip E373A (p value, inhibitor IC50 on USP25 E373A compared with USP25 WT) came to 3.888E-04. Also, the inhibition at 11.11 µM on USP25Δtip E373A (read-out: relative inhibition [%] - USP25 - E373A, inhibitor 11.11 µM, single replicates) came out at 13.3%; at USP25Δtip L271F (read-out: relative inhibition [%] - USP25 - L271F, inhibitor 11.11 µM, single replicates), 90.1%. In addition, the inhibition at 33.33 µM on USP25Δtip E373A (read-out: relative inhibition [%] - USP25 - E373A, inhibitor 33.33 µM, single replicates) stood at 33.6%; at USP25Δtip L271F (read-out: relative inhibition [%] - USP25 - L271F, inhibitor 33.33 µM, single replicates) it was 95.6%. Also, the “t-test vs. USP25 WT control - L271F” value at USP25Δtip L271F (p value, inhibitor IC50 on USP25 L271F compared with USP25 WT) came to 4.479E-03.
